According to patent publication US6440903B1, “Substituted 2,4-diamino-1,3,5-triazines as herbicides” (Bayer Aktiengesellschaft, priority 1996, dated 2002):

How the values were obtained:
Assay type in all cases: in vivo
Amaranthus = experiment: Post-emergence test; details: greenhouse, scored after three weeks; for pest or weed control at 250 g/ha / pest or weed control at 500 g/ha / pest or weed control at 1000 g/ha: Amaranthus, 504 h, read-out: % damage, Amaranthus; for pest or weed control at 1000 g/ha: 1000 g of ai./ha
Experimental: (§1) Post-emergence Test Solvent: 5 parts by weight of acetone Emulsifier: 1 part by weight of alkylaryl polyglycol ether To produce a suitable preparation of active compound, 1 part by weight of active compound is mixed with the stated amount of solvent, the stated amount of emulsifier is added and the concentrate is diluted with water to the desired concentration. Test plants which have a height of 5-15 cm are sprayed with the preparation of active compound such that the particular amounts of active compounds desired are applied per unit area. The concentration of the spray liquor is chosen so that the particular amounts of active compound desired are applied in 1000 l of water/ha. After three weeks, the degree of damage to the plants is scored visually in % damage in comparison to the untreated control. The Figures Denote: 0%=no effect (like untreated control) 100%=total destruction

Polygonum = experiment: Post-emergence test; details: greenhouse, scored after three weeks; for pest or weed control at 250 g/ha / pest or weed control at 500 g/ha / pest or weed control at 1000 g/ha: Polygonum, 504 h, read-out: % damage, Polygonum; for pest or weed control at 1000 g/ha: 1000 g of ai./ha
Experimental: as §1

Wheat = experiment: Post-emergence test; details: greenhouse, scored after three weeks; for plant injury at 250 g/ha / plant injury at 500 g/ha / plant injury at 1000 g/ha: Triticum aestivum, 504 h, read-out: % damage, Wheat; for plant injury at 250 g/ha / % damage, Wheat: 250 g of ai./ha; for plant injury at 500 g/ha: 500 g of ai./ha; for plant injury at 1000 g/ha: 1000 g of ai./ha
Experimental: as §1

Chenopodium = experiment: Post-emergence test; details: greenhouse, scored after three weeks; for pest or weed control at 250 g/ha / pest or weed control at 500 g/ha / pest or weed control at 1000 g/ha: Chenopodium, 504 h, read-out: % damage, Chenopodium; for pest or weed control at 1000 g/ha: 1000 g of ai./ha
Experimental: as §1

Setaria = experiment: Post-emergence test; details: greenhouse, scored after three weeks; for pest or weed control at 250 g/ha: 250 g of ai./ha
Experimental: as §1

Viola = experiment: Post-emergence test; details: greenhouse, scored after three weeks; for pest or weed control at 250 g/ha / pest or weed control at 500 g/ha / pest or weed control at 1000 g/ha: 504 h, read-out: % damage, Viola; for pest or weed control at 1000 g/ha: 1000 g of ai./ha
Experimental: as §1

weeds = experiment: Post-emergence test (summary in text); details: result in words
Experimental: Solvent: 5 parts by weight of acetone
Emulsifier: 1 part by weight of alkylaryl polyglycol ether
To produce a suitable preparation of active compound, 1 part by weight of active compound is mixed with the stated amount of solvent, the stated amount of emulsifier is added and the concentrate is diluted with water to the desired concentration.
Test plants which have a height of 5-15 cm are sprayed with the preparation of active compound such that the particular amounts of active compounds desired are applied per unit area. The concentration of the spray liquor is chosen so that the particular amounts of active compound desired are applied in 1000 l of water/ha.
After three weeks, the degree of damage to the plants is scored visually in % damage in comparison to the untreated control.
0%=no effect (like untreated control)

[1] = Setaria, 504 h, read-out: % damage, Setaria
[2] = Setaria, 504 h, 500 g of ai./ha, read-out: % damage, Setaria

CC(Nc1nc(N)nc(C(F)(F)C(F)(F)F)n1)c1ccc(Cl)cc1 (stereo not drawn)
pest or weed control at 250 g/ha (Amaranthus; 250 g of ai./ha): 100% | pest or weed control at 250 g/ha (Polygonum; 250 g of ai./ha): 100% | plant injury at 250 g/ha (Wheat): 10% | pest or weed control at 250 g/ha (Chenopodium; 250 g of ai./ha): 100% | pest or weed control at 250 g/ha (Setaria; [1]): 100% | pest or weed control at 250 g/ha (Viola; 250 g of ai./ha): 100%

CC(=O)Nc1nc(NC(C)c2ccc(Cl)cc2)nc(C(F)(F)F)n1 (stereo not drawn)
pest or weed control at 500 g/ha (Amaranthus; 500 g of ai./ha): 100% | pest or weed control at 500 g/ha (Polygonum; 500 g of ai./ha): 100% | plant injury at 500 g/ha (Wheat): 10% | pest or weed control at 500 g/ha (Chenopodium; 500 g of ai./ha): 100% | pest or weed control at 500 g/ha (Setaria; [2]): 95% | pest or weed control at 500 g/ha (Viola; 500 g of ai./ha): 100%

CC(Nc1nc(N)nc(Cl)n1)c1ccc(Cl)cc1 (stereo not drawn) [Example 4]
activity against weeds (weeds): strong activity

CC(Nc1nc(N)nc(Cl)n1)c1ccc(Cl)cc1 (stereo not drawn) [Example 5]
activity against weeds (weeds): strong activity

CC(Nc1nc(N)nc(Cl)n1)c1ccc(Cl)cc1 (stereo not drawn) [Example 8]
activity against weeds (weeds): strong activity

CC(Nc1nc(N)nc(C(F)(F)F)n1)c1ccc(Cl)cc1 (stereo not drawn) [Example 15]
activity against weeds (weeds): strong activity

CC(Nc1nc(N)nc(C(F)(F)F)n1)c1ccc(Cl)cc1 (stereo not drawn) [Example 21]
activity against weeds (weeds): strong activity

COc1ccc(C(C)Nc2nc(N)nc(C(F)(F)F)n2)cc1 (stereo not drawn) [Example 79]
activity against weeds (weeds): strong activity

CCC(Nc1nc(N)nc(C(F)(F)F)n1)c1ccc(Cl)cc1 (stereo not drawn) [Example 86]
activity against weeds (weeds): strong activity

CCC(Nc1nc(N)nc(C(F)(F)F)n1)c1ccc(Cl)cc1 (stereo not drawn) [Example 87]
activity against weeds (weeds): strong activity

CCc1nc(N)nc(NC(C)c2ccc(Cl)cc2)n1 (stereo not drawn) [Example 91]
activity against weeds (weeds): strong activity

CC(Nc1nc(N)nc(C(Cl)Cl)n1)c1ccc(Cl)cc1 (stereo not drawn) [Example 94]
activity against weeds (weeds): strong activity

CC(Cl)c1nc(N)nc(NC(C)c2ccc(Cl)cc2)n1 (stereo not drawn) [Example 96]
activity against weeds (weeds): strong activity

CC(Nc1nc(N)nc(C(C)(Cl)Cl)n1)c1ccc(Cl)cc1 (stereo not drawn) [Example 97]
activity against weeds (weeds): strong activity

CCc1nc(N)nc(NC(C)c2ccc(Cl)cc2)n1 (stereo not drawn) [Example 153]
activity against weeds (weeds): strong activity

CCc1nc(N)nc(NC(C)c2ccc(Cl)cc2)n1 (stereo not drawn) [Example 166]
activity against weeds (weeds): strong activity

COCc1nc(N)nc(NC(C)c2ccc(Cl)cc2)n1 (stereo not drawn) [Example 170]
activity against weeds (weeds): strong activity

CC(Cl)c1nc(N)nc(NC(C)c2ccc(Cl)cc2)n1 (stereo not drawn) [Example 171]
activity against weeds (weeds): strong activity

COc1ccc(C(C)Nc2nc(N)nc(C(C)F)n2)cc1 (stereo not drawn) [Example 190]
activity against weeds (weeds): strong activity

CSc1ccc(C(C)Nc2nc(N)nc(C(Cl)Cl)n2)cc1 (stereo not drawn) [drawing 113]
pest or weed control at 1000 g/ha (Amaranthus): 100% | pest or weed control at 1000 g/ha (Polygonum): 80% | plant injury at 1000 g/ha (Wheat): 0% | pest or weed control at 1000 g/ha (Chenopodium): 100% | pest or weed control at 1000 g/ha (Setaria; Setaria, 504 h, 1000 g of ai./ha, read-out: % damage, Setaria): 90% | pest or weed control at 1000 g/ha (Viola): 100%

CSc1ccc(C(C)Nc2nc(N)nc(C(C)(Cl)Cl)n2)cc1 (stereo not drawn) [drawing 114]
pest or weed control at 500 g/ha (Amaranthus; 500 g of ai./ha): 100% | pest or weed control at 500 g/ha (Polygonum; 500 g of ai./ha): 100% | plant injury at 500 g/ha (Wheat): 0% | pest or weed control at 500 g/ha (Chenopodium; 500 g of ai./ha): 100% | pest or weed control at 500 g/ha (Setaria; [2]): 80% | pest or weed control at 500 g/ha (Viola; 500 g of ai./ha): 100%

CCc1nc(N)nc(NC(C)c2ccc(Cl)cc2)n1 (stereo not drawn) [drawing 116]
pest or weed control at 250 g/ha (Amaranthus; 250 g of ai./ha): 100% | pest or weed control at 250 g/ha (Polygonum; 250 g of ai./ha): 100% | plant injury at 250 g/ha (Wheat): 10% | pest or weed control at 250 g/ha (Chenopodium; 250 g of ai./ha): 100% | pest or weed control at 250 g/ha (Setaria; [1]): 100% | pest or weed control at 250 g/ha (Viola; 250 g of ai./ha): 100%

CC(Nc1nc(N)nc(C(F)C(F)(F)F)n1)c1ccc(Cl)cc1 (stereo not drawn) [drawing 117]
pest or weed control at 250 g/ha (Amaranthus; 250 g of ai./ha): 100% | pest or weed control at 250 g/ha (Polygonum; 250 g of ai./ha): 100% | plant injury at 250 g/ha (Wheat): 10% | pest or weed control at 250 g/ha (Chenopodium; 250 g of ai./ha): 100% | pest or weed control at 250 g/ha (Setaria; [1]): 95% | pest or weed control at 250 g/ha (Viola; 250 g of ai./ha): 100%

COCc1nc(N)nc(NC(C)c2ccc(Cl)cc2)n1 (stereo not drawn) [drawing 118]
pest or weed control at 250 g/ha (Amaranthus; 250 g of ai./ha): 100% | pest or weed control at 250 g/ha (Polygonum; 250 g of ai./ha): 100% | plant injury at 250 g/ha (Wheat): 10% | pest or weed control at 250 g/ha (Chenopodium; 250 g of ai./ha): 100% | pest or weed control at 250 g/ha (Setaria; [1]): 80% | pest or weed control at 250 g/ha (Viola; 250 g of ai./ha): 100%

CC(Nc1nc(N)nc(C(Cl)Cl)n1)c1ccc(Cl)cc1 (stereo not drawn) [drawing 119]
pest or weed control at 250 g/ha (Amaranthus; 250 g of ai./ha): 100% | pest or weed control at 250 g/ha (Polygonum; 250 g of ai./ha): 100% | plant injury at 250 g/ha (Wheat): 10% | pest or weed control at 250 g/ha (Chenopodium; 250 g of ai./ha): 100% | pest or weed control at 250 g/ha (Setaria; [1]): 90% | pest or weed control at 250 g/ha (Viola; 250 g of ai./ha): 100%

CC(Cl)c1nc(N)nc(NC(C)c2ccc(Cl)cc2)n1 (stereo not drawn) [drawing 120]
pest or weed control at 250 g/ha (Amaranthus; 250 g of ai./ha): 100% | pest or weed control at 250 g/ha (Polygonum; 250 g of ai./ha): 100% | % damage, Wheat (Wheat): 0% | pest or weed control at 250 g/ha (Chenopodium; 250 g of ai./ha): 100% | pest or weed control at 250 g/ha (Setaria; [1]): 80% | pest or weed control at 250 g/ha (Viola; 250 g of ai./ha): 100%

CC(Nc1nc(N)nc(C(C)(Cl)Cl)n1)c1ccc(Cl)cc1 (stereo not drawn) [drawing 121]
pest or weed control at 250 g/ha (Amaranthus; 250 g of ai./ha): 100% | pest or weed control at 250 g/ha (Polygonum; 250 g of ai./ha): 100% | plant injury at 250 g/ha (Wheat): 10% | pest or weed control at 250 g/ha (Chenopodium; 250 g of ai./ha): 100% | pest or weed control at 250 g/ha (Setaria; [1]): 80% | pest or weed control at 250 g/ha (Viola; 250 g of ai./ha): 100%

CCc1nc(N)nc(NC(C)c2ccc(Cl)cc2)n1 (stereo not drawn) [drawing 123]
pest or weed control at 500 g/ha (Amaranthus; 500 g of ai./ha): 100% | pest or weed control at 500 g/ha (Polygonum; 500 g of ai./ha): 100% | pest or weed control at 500 g/ha (Chenopodium; 500 g of ai./ha): 100% | pest or weed control at 500 g/ha (Setaria; [2]): 95% | pest or weed control at 500 g/ha (Viola; 500 g of ai./ha): 100%

CCc1nc(N)nc(NC(C)c2ccc(Cl)cc2)n1 (stereo not drawn) [drawing 127]
% damage, Amaranthus (Amaranthus; 500 g of ai./ha): 100% | % damage, Polygonum (Polygonum; 500 g of ai./ha): 100% | % damage, Chenopodium (Chenopodium; 500 g of ai./ha): 100% | % damage, Setaria (Setaria; 500 g of ai./ha): 100% | % damage, Viola (Viola; 500 g of ai./ha): 100%

COCc1nc(N)nc(NC(C)c2ccc(Cl)cc2)n1 (stereo not drawn) [drawing 130]
% damage, Amaranthus (Amaranthus; 250 g of ai./ha): 100% | % damage, Polygonum (Polygonum; 250 g of ai./ha): 100% | % damage, Wheat (Wheat): 10% | % damage, Chenopodium (Chenopodium; 250 g of ai./ha): 100% | % damage, Viola (Viola; 250 g of ai./ha): 100%

COc1ccc(C(C)Nc2nc(N)nc(C(C)F)n2)cc1 (stereo not drawn) [drawing 136]
pest or weed control at 250 g/ha (Amaranthus; 250 g of ai./ha): 100% | pest or weed control at 250 g/ha (Polygonum; 250 g of ai./ha): 100% | plant injury at 250 g/ha (Wheat): 10% | pest or weed control at 250 g/ha (Chenopodium; 250 g of ai./ha): 100% | pest or weed control at 250 g/ha (Viola; 250 g of ai./ha): 95%

CCC(Nc1nc(N)nc(C(F)(F)F)n1)c1ccc(Cl)cc1 (stereo not drawn) [drawing 139]
pest or weed control at 1000 g/ha (Amaranthus): 100% | pest or weed control at 1000 g/ha (Polygonum): 100% | plant injury at 1000 g/ha (Wheat): 10% | pest or weed control at 1000 g/ha (Chenopodium): 100% | pest or weed control at 1000 g/ha (Viola): 100%
